# ChEMBL document CHEMBL1149568, “Design, synthesis, and molecular modeling studies of 5'-deoxy-5'-ureidoadenosine: 5'-ureido group as multiple hydrogen bonding donor in the active site of S-adenosylhomocysteine hydrolase” (Bioorg Med Chem Lett, 2007)
# Target: Adenosylhomocysteinase (Homo sapiens, UniProt P23526)
# Experiment: Inhibition of human recombinant placental SAH
# Chain of Adenosylhomocysteinase (P23526 whole entry): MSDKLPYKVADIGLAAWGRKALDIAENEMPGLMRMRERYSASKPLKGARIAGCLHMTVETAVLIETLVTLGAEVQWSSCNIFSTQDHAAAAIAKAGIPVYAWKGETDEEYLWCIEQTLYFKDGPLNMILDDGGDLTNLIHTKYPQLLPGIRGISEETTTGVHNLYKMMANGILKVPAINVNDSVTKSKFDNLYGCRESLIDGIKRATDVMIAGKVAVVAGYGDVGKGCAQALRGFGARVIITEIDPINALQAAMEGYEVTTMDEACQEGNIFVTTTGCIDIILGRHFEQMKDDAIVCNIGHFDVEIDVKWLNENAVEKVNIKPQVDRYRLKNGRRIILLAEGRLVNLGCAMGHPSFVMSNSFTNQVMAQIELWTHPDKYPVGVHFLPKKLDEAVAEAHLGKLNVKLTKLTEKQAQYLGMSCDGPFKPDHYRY
row,Structure (SMILES),IC50
1,NC(=O)NC[C@H]1O[C@@H](n2cnc3c(N)ncnc32)[C@H](O)[C@@H]1O,7.53 µM
2,[N-]=[N+]=NC[C@H]1O[C@@H](n2cnc3c(N)ncnc32)[C@H](O)[C@@H]1O,28.9 µM
3,NC[C@H]1O[C@@H](n2cnc3c(N)ncnc32)[C@H](O)[C@@H]1O,75 µM
